Measurements taken from patent publication US20260001928A1 (CORTERIA PHARMACEUTICALS, priority 2022, published 2026).
*1 amine or outer side, *2 acyl side, *3 side chain or, on linkers, in order; H or OH if unused. Where a SMILES comes first, the peptide text is derived from it. Side-chain parts run from the residue outwards. [ ]: non-standard residue; d: D form. The star is where a group is joined. C20 diacid = O=C(O)CCCCCCCCCCCCCCCCCCC(=O)*; C16 diacid = O=C(O)CCCCCCCCCCCCCCC(=O)*; γGlu = O=C(O)[C@H](CCC(=O)[*:2])N[*:1]; NMeI = CC[C@H](C)[C@H](NC)C(=O)O; Aib = CC(C)(N)C(=O)O

Tested on: human LAD2 cells
Assay type: cell-based
Summary of the method: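 Mast cell degranulation: cells exposed to peptides for 30 min at final concentrations from 50, 100 or 300 down to 0.1 or 0.001 μM, with 0.5% DMSO where used, in biological duplicates. β-hexosaminidase release was read with a fluorogenic 4-methylumbelliferyl substrate as supernatant/(supernatant + Triton-lysed pellet) × 100. EC50 came from a 4-parameter sigmoidal fit.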

Row | EC50 | SMILES
1 | > 100 µM | CC[C@H](C)[C@H](NC(C)=O)C(=O)N[C@H](C(=O)N[C@@H](CC(C)C)C(=O)N[C@@H](CO)C(=O)N[C@@H](CC(C)C)C(=O)N[C@@H](CC(=O)O)C(=O)N[C@@H](C(=O)N1CCC[C@H]1C(=O)N[C@H](C(=O)N[C@@H](CCCCN)C(=O)N[C@@H](CC(C)C)C(=O)N[C@@H](CCCCNC(=O)CC[C@H](NC(=O)CCCCCCCCCCCCCCC(=O)O)C(=O)O)C(=O)N[C@@H](CCCCN)C(=O)N[C@H](C(=O)N[C@@H](CC(C)C)C(=O)N[C@@H](CC(C)C)C(=O)N[C@@H](CCC(=O)O)C(=O)N[C@@H](CCC(N)=O)C(=O)N[C@@H](CCC(=O)O)C(=O)N[C@@H](CCCCN)C(=O)N[C@@H](CCC(N)=O)C(=O)N[C@@H](C)C(=O)N[C@@H](CCCCN)C(=O)N[C@@H](CCC(N)=O)C(=O)N[C@@H](CCCNC(=N)N)C(=O)N[C@@H](CCC(=O)O)C(=O)N[C@@H](CCC(N)=O)C(=O)N[C@@H](C)C(=O)N[C@@H](CCC(=O)O)C(=O)N[C@H](C(=O)N[C@@H](CC(N)=O)C(=O)NC(C)(C)C(=O)N[C@@H](CCC(N)=O)C(=O)N[C@H](C(=O)N[C@@H](CC(C)C)C(=O)N[C@@H](C)C(=O)N[C@@H](CCC(N)=O)C(=O)N[C@H](C(N)=O)C(C)C)[C@@H](C)CC)[C@@H](C)O)[C@@H](C)CC)[C@@H](C)CC)C(C)C)C(C)C [Cmpd 166] (Ac-IVLSLD[dV]PIKLK([γGlu-C16 diacid])KILLEQEKQAKQREQAETN[Aib]QILAQV-NH2)
2 | > 50 µM | CC[C@H](C)[C@H](NC(C)=O)C(=O)N[C@H](C(=O)N[C@@H](CC(C)C)C(=O)N[C@@H](CO)C(=O)N[C@@H](CC(C)C)C(=O)N[C@@H](CC(=O)O)C(=O)N[C@@H](C(=O)N1CCC[C@H]1C(=O)N[C@H](C(=O)N[C@@H](CCCCN)C(=O)N[C@@H](CC(C)C)C(=O)N[C@@H](CCCCNC(=O)CC[C@H](NC(=O)CCCCCCCCCCCCCCC(=O)O)C(=O)O)C(=O)N[C@@H](CCCCN)C(=O)N[C@H](C(=O)N[C@@H](CC(C)C)C(=O)N[C@@H](CC(C)C)C(=O)N[C@@H](CCC(=O)O)C(=O)N[C@@H](CCC(N)=O)C(=O)N[C@@H](CCC(=O)O)C(=O)N[C@@H](CCCCN)C(=O)N[C@@H](CCC(N)=O)C(=O)N[C@@H](CCCCN)C(=O)N[C@@H](CCCCN)C(=O)N[C@@H](CCC(N)=O)C(=O)N[C@@H](C)C(=O)N[C@@H](CCC(=O)O)C(=O)N[C@@H](CCC(N)=O)C(=O)N[C@@H](C)C(=O)N[C@@H](CCC(=O)O)C(=O)N[C@H](C(=O)N[C@@H](CC(N)=O)C(=O)NC(C)(C)C(=O)N[C@@H](CCC(N)=O)C(=O)N[C@H](C(=O)N[C@@H](CC(C)C)C(=O)N[C@@H](C)C(=O)N[C@@H](CCC(N)=O)C(=O)N[C@H](C(N)=O)C(C)C)[C@@H](C)CC)[C@@H](C)O)[C@@H](C)CC)[C@@H](C)CC)C(C)C)C(C)C [Cmpd 167] (Ac-IVLSLD[dV]PIKLK([γGlu-C16 diacid])KILLEQEKQKKQAEQAETN[Aib]QILAQV-NH2)
3 | > 300 µM | CC[C@H](C)[C@H](NC(C)=O)C(=O)N[C@H](C(=O)N[C@@H](CC(C)C)C(=O)N[C@@H](CO)C(=O)N[C@@H](CC(C)C)C(=O)N[C@@H](CC(=O)O)C(=O)N[C@@H](C(=O)N1CCC[C@H]1C(=O)N[C@H](C(=O)N[C@@H](CCCCN)C(=O)N[C@@H](CC(C)C)C(=O)N[C@@H](CCCCNC(=O)CC[C@H](NC(=O)CCCCCCCCCCCCCCC(=O)O)C(=O)O)C(=O)N[C@@H](CCCCN)C(=O)N[C@H](C(=O)N[C@@H](CC(C)C)C(=O)N[C@@H](CC(C)C)C(=O)N[C@@H](CCC(=O)O)C(=O)N[C@@H](CCC(N)=O)C(=O)N[C@@H](CCC(=O)O)C(=O)N[C@@H](CCCCN)C(=O)N[C@@H](CCC(N)=O)C(=O)N[C@@H](CCCCN)C(=O)N[C@@H](CCC(=O)O)C(=O)N[C@@H](CCC(N)=O)C(=O)N[C@@H](CCCNC(=N)N)C(=O)N[C@@H](CCC(=O)O)C(=O)N[C@@H](CCC(N)=O)C(=O)N[C@@H](C)C(=O)N[C@@H](CCC(=O)O)C(=O)N[C@H](C(=O)N[C@@H](CC(N)=O)C(=O)NC(C)(C)C(=O)N[C@@H](CCC(N)=O)C(=O)N[C@H](C(=O)N[C@@H](CC(C)C)C(=O)N[C@@H](C)C(=O)N[C@@H](CCC(N)=O)C(=O)N[C@H](C(N)=O)C(C)C)[C@@H](C)CC)[C@@H](C)O)[C@@H](C)CC)[C@@H](C)CC)C(C)C)C(C)C [Cmpd 168] (Ac-IVLSLD[dV]PIKLK([γGlu-C16 diacid])KILLEQEKQKEQREQAETN[Aib]QILAQV-NH2)
4 | > 300 µM | CC[C@H](C)[C@H](NC(C)=O)C(=O)N[C@H](C(=O)N[C@@H](CC(C)C)C(=O)N[C@@H](CO)C(=O)N[C@@H](CC(C)C)C(=O)N[C@@H](CC(=O)O)C(=O)N[C@@H](C(=O)N1CCC[C@H]1C(=O)N[C@H](C(=O)N[C@@H](CCCCN)C(=O)N[C@@H](CC(C)C)C(=O)N[C@@H](CCCCNC(=O)CC[C@H](NC(=O)CCCCCCCCCCCCCCCCCCC(=O)O)C(=O)O)C(=O)N[C@@H](CCCCN)C(=O)N[C@H](C(=O)N[C@@H](CC(C)C)C(=O)N[C@@H](CC(C)C)C(=O)N[C@@H](CCC(=O)O)C(=O)N[C@@H](CCC(N)=O)C(=O)N[C@@H](CCC(=O)O)C(=O)N[C@@H](CCCCN)C(=O)N[C@@H](CCC(N)=O)C(=O)N[C@@H](CCCCN)C(=O)N[C@@H](C)C(=O)N[C@@H](CCC(N)=O)C(=O)N[C@@H](CCCNC(=N)N)C(=O)N[C@@H](CCC(=O)O)C(=O)N[C@@H](CCC(N)=O)C(=O)N[C@@H](C)C(=O)N[C@@H](CCC(=O)O)C(=O)N[C@H](C(=O)N[C@@H](CC(N)=O)C(=O)NC(C)(C)C(=O)N[C@@H](CCC(N)=O)C(=O)N[C@H](C(=O)N[C@@H](CC(C)C)C(=O)N[C@@H](C)C(=O)N[C@@H](CCC(N)=O)C(=O)N[C@H](C(N)=O)C(C)C)[C@@H](C)CC)[C@@H](C)O)[C@@H](C)CC)[C@@H](C)CC)C(C)C)C(C)C [Cmpd 212] (Ac-IVLSLD[dV]PIKLK([γGlu-C20 diacid])KILLEQEKQKAQREQAETN[Aib]QILAQV-NH2)
5 | > 300 µM | CC[C@H](C)[C@H](NC(C)=O)C(=O)N[C@H](C(=O)N[C@@H](CC(C)C)C(=O)N[C@@H](CO)C(=O)N[C@@H](CC(C)C)C(=O)N[C@@H](CC(=O)O)C(=O)N[C@@H](C(=O)N1CCC[C@H]1C(=O)N[C@H](C(=O)N[C@@H](CCCCN)C(=O)N[C@@H](CC(C)C)C(=O)N[C@@H](CCCCNC(=O)CC[C@H](NC(=O)CCCCCCCCCCCCCCCCCCC(=O)O)C(=O)O)C(=O)N[C@@H](CCCCN)C(=O)N[C@H](C(=O)N[C@@H](CC(C)C)C(=O)N[C@@H](CC(C)C)C(=O)N[C@@H](CCC(=O)O)C(=O)N[C@@H](CCC(N)=O)C(=O)N[C@@H](CCC(=O)O)C(=O)N[C@@H](CCCCN)C(=O)N[C@@H](CCC(N)=O)C(=O)N[C@@H](CCCCN)C(=O)N[C@@H](CCC(=O)O)C(=O)N[C@@H](CCC(N)=O)C(=O)N[C@@H](CCCNC(=N)N)C(=O)N[C@@H](CCC(=O)O)C(=O)N[C@@H](CCC(N)=O)C(=O)N[C@@H](C)C(=O)N[C@@H](CCC(=O)O)C(=O)N[C@H](C(=O)N[C@@H](CC(N)=O)C(=O)NC(C)(C)C(=O)N[C@@H](CCC(N)=O)C(=O)N[C@H](C(=O)N[C@@H](CC(C)C)C(=O)N[C@@H](C)C(=O)N[C@@H](CCC(N)=O)C(=O)N[C@H](C(N)=O)C(C)C)[C@@H](C)CC)[C@@H](C)O)[C@@H](C)CC)[C@@H](C)CC)C(C)C)C(C)C [Cmpd 213] (Ac-IVLSLD[dV]PIKLK([γGlu-C20 diacid])KILLEQEKQKEQREQAETN[Aib]QILAQV-NH2)
6 | > 100 µM | CC[C@H](C)[C@H](NC)C(=O)N[C@H](C(=O)N[C@@H](CC(C)C)C(=O)N[C@@H](CO)C(=O)N[C@@H](CC(C)C)C(=O)N[C@@H](CC(=O)O)C(=O)N[C@@H](C(=O)N1CCC[C@H]1C(=O)N[C@H](C(=O)N[C@@H](CCCCN)C(=O)N[C@@H](CC(C)C)C(=O)N[C@@H](CCCCNC(=O)CC[C@H](NC(=O)CCCCCCCCCCCCCCCCCCC(=O)O)C(=O)O)C(=O)N[C@@H](CCCCN)C(=O)N[C@H](C(=O)N[C@@H](CC(C)C)C(=O)N[C@@H](CC(C)C)C(=O)N[C@@H](CCC(=O)O)C(=O)N[C@@H](CCC(N)=O)C(=O)N[C@@H](CCC(=O)O)C(=O)N[C@@H](CCCCN)C(=O)N[C@@H](CCC(N)=O)C(=O)N[C@@H](CCCCN)C(=O)NC(C)(C)C(=O)N[C@@H](CCC(N)=O)C(=O)N[C@@H](CCCNC(=N)N)C(=O)N[C@@H](CCC(=O)O)C(=O)N[C@@H](CCC(N)=O)C(=O)N[C@@H](C)C(=O)N[C@@H](CCC(=O)O)C(=O)N[C@H](C(=O)N[C@@H](CC(N)=O)C(=O)NC(C)(C)C(=O)N[C@@H](CCC(N)=O)C(=O)N[C@H](C(=O)N[C@@H](CC(C)C)C(=O)N[C@@H](C)C(=O)N[C@@H](CCC(N)=O)C(=O)N[C@H](C(N)=O)C(C)C)[C@@H](C)CC)[C@@H](C)O)[C@@H](C)CC)[C@@H](C)CC)C(C)C)C(C)C [Cmpd 215] (H-[NMeI]VLSLD[dV]PIKLK([γGlu-C20 diacid])KILLEQEKQK[Aib]QREQAETN[Aib]QILAQV-NH2)
7 | > 300 µM | CC[C@H](C)[C@H](NC)C(=O)N[C@H](C(=O)N[C@@H](CC(C)C)C(=O)N[C@@H](CO)C(=O)N[C@@H](CC(C)C)C(=O)N[C@@H](CC(=O)O)C(=O)N[C@@H](C(=O)N1CCC[C@H]1C(=O)N[C@H](C(=O)N[C@@H](CCCCN)C(=O)N[C@@H](CC(C)C)C(=O)N[C@@H](CCCCNC(=O)CC[C@H](NC(=O)CCCCCCCCCCCCCCCCCCC(=O)O)C(=O)O)C(=O)N[C@@H](CCCCN)C(=O)N[C@H](C(=O)N[C@@H](CC(C)C)C(=O)N[C@@H](CC(C)C)C(=O)N[C@@H](CCC(=O)O)C(=O)N[C@@H](CCC(N)=O)C(=O)N[C@@H](CCC(=O)O)C(=O)N[C@@H](CCCCN)C(=O)N[C@@H](CCC(N)=O)C(=O)N[C@@H](CCCCN)C(=O)N[C@@H](C)C(=O)N[C@@H](CCC(N)=O)C(=O)N[C@@H](CCCNC(=N)N)C(=O)N[C@@H](CCC(=O)O)C(=O)N[C@@H](CCC(N)=O)C(=O)N[C@@H](C)C(=O)N[C@@H](CCC(=O)O)C(=O)N[C@H](C(=O)N[C@@H](CC(N)=O)C(=O)NC(C)(C)C(=O)N[C@@H](CCC(N)=O)C(=O)N[C@H](C(=O)N[C@@H](CC(C)C)C(=O)N[C@@H](C)C(=O)N[C@@H](CCC(N)=O)C(=O)N[C@H](C(N)=O)C(C)C)[C@@H](C)CC)[C@@H](C)O)[C@@H](C)CC)[C@@H](C)CC)C(C)C)C(C)C [Cmpd 217] (H-[NMeI]VLSLD[dV]PIKLK([γGlu-C20 diacid])KILLEQEKQKAQREQAETN[Aib]QILAQV-NH2)
